Test results reported in ChEMBL document CHEMBL1201862, “PubChem BioAssay data set” (2004).
Calls of active or inactive are those of the source.

Columns and labels:
[1] = microbe, parasite or virus in culture; format: functional; conditions: Mycobacterium tuberculosis
[2] = test system: Streptococcus sp. 'group A'; assay: growth inhibition of control SK(-) GAS strain, dose response, counter-screen for streptokinase expression inhibitor project, luminescence, kanamycin, BacTiterGlo, confirmation (AID 1900); format: functional, organism-based
[3] = biological target: T1, Calpain-2 catalytic subunit (Sus scrofa, UniProt P43367); assay: pig calpain II inhibitor potency, dose response, biochemical, fluorogenic peptide substrate (AID 1420); format: functional
T1 sequence (P43367 whole entry): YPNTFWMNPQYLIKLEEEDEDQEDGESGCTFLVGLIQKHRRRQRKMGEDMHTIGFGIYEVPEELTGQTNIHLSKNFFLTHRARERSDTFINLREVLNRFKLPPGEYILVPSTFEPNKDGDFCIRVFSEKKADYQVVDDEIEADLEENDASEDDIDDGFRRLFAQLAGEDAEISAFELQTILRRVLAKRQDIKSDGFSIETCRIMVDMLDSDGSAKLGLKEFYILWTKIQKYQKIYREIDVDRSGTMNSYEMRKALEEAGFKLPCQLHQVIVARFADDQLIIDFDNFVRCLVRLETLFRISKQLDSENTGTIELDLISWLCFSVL

[4] = biological target: T2, Streptokinase A (Streptococcus pyogenes serotype M1, UniProt P10520); assay: S. pyogenes streptokinase expression inhibitors, potency, dose response, plasminogen activation absorbance, OD405 (AID 1914); format: functional, Streptococcus pyogenes M1 GAS;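 also: secreted streptokinase activity via plasminogen activation per viability signal from cell pellet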
T2 sequence (P10520 whole entry): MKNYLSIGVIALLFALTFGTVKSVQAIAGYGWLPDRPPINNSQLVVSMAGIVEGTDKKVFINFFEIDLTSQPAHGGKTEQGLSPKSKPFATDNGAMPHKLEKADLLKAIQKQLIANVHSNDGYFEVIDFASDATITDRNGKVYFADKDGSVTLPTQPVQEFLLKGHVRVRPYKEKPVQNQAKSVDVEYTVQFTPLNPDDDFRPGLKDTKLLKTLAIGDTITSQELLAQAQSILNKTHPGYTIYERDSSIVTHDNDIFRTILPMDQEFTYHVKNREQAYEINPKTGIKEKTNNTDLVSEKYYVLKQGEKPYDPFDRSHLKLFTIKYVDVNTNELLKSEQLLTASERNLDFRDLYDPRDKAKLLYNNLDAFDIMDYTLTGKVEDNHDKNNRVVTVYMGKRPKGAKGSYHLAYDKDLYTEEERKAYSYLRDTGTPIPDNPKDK

[5] = test system: Streptococcus; assay: Group A Streptococcus viability loss, dose response, counter-screen for streptokinase expression inhibitor project, luminescence, BacTiterGlo (AID 1915); format: functional, organism-based;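 also: potency for reduction of bacterial viability or growth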
[6] = NIH-3T3 fibroblast cytotoxicity, dose response, cytotoxicity control, cell-based, fluorescence, Alamar Blue, secondary assay (AID 2327); format: functional;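 also: NIH-3T3 mouse fibroblasts cultured with fluconazole at 8 µg/mL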
[7] = cytotoxicity toward NIH3T3 fibroblasts, dose response, counter-screen, cell-based, ATP luminescence, mouse fibroblasts (AID 2010); format: functional;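 also: cells exposed to compound for about 90 hours before reading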
[8] = C. albicans growth with fluconazole, confirmation, fluorescence, retest (AID 2467); format: functional, cell-based
[9] = inhibitors of intracellular T. cruzi replication, confirmation, NIH3T3 host cells, beta-gal luminescence (AID 2044); format: functional, cell-based;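 also: intracellular parasites grown in NIH/3T3 mouse fibroblasts as host cells; luminescent beta-galactosidase reporter signal from transgenic T. cruzi replicating inside host cells; inhibitors lower the luminescence signal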
[10] = test system: INS1; assay: beta cell apoptosis inhibitors, cytokine rescue, dose response, luminescence, retest (AID 449756); format: functional, cell-based; conditions: Rattus norvegicus;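 also: cell death triggered by IL-1 beta plus TNF-alpha plus IFN-gamma mixture; protective hits raise ATP signal compared with cytokine alone wells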

## Cc1cccc(N2CCN(CCCNC(=O)c3ccc(NC(=O)C4=CSCCO4)cc3)CC2C)c1 (stereo unspecified)
[1]
  CC50: > 40 µM (active)

## CCc1ccc(NC(=S)/N=C(\N)Nc2nc(C)c3cc(CC)ccc3n2)cc1
[1]
  CC50: 17.4 µM (active)

## CC(C)C[C@H](NC(=O)c1[nH]cnc1C(=O)N[C@H](C)c1ccccc1)C(=O)OC(C)(C)C
[2]
  EC50: 3.86 µM (active)
[3]
  IC50: 11.7 µM (not active)
[4]
  EC50: > 150 µM (not active)
[5]
  EC50: 9.3 µM (active)

## CCOC(=O)c1ccccc1NC(=O)COc1coc(CN2CCc3ccccc32)cc1=O
[1]
  CC50: > 40 µM (active)

## O=C(O)C1CC=CCC1C(=O)N1CCN(c2nc(-c3ccccc3Cl)c3cc(Br)ccc3n2)CC1 (stereo unspecified)
[1]
  CC50: 38.3 µM (active)

## CCc1ccc2oc(-c3ccc(OC)cc3)cc(=Nc3c(C)n(C)n(-c4ccccc4)c3=O)c2c1
[6]
  EC50: > 160 µM (inactive)
[7]
  EC50: > 60 µM (not active)
[1]
  CC50: 27.6 µM (active)
[8]
  EC50: > 38 µM (not active)
[9]
  EC50: 1.94 µM (active)

## CCOC(=O)/C(=N/Nc1ccc(OC)cc1)N1CCCc2ccccc21
[1]
  CC50: > 40 µM (active)

## CCOc1ccc(/C=N/Nc2ccc(Cl)nn2)c(O)c1
[1]
  CC50: 18.4 µM (active)
[10]
  AC50: 1.77 µM (active)
